Results reported in US8865759B2, “Use of dithiine-tetracarboximides for controlling phytopathogenic fungi” (priority 2008, dated 2014).

Test: logP determination by HPLC on reversed-phase column (C 18), EEC Directive 79/831 Annex V.A8
Assay type: physicochemical
Conditions: reversed-phase C 18, 43° C., acidic range pH 2.7, 0.1% aqueous formic acid/acetonitrile

| SMILES | log P |
| --- | --- |
| COCCn1c(=O)c2sc3c(=O)n(CCOC)c(=O)c3sc2c1=O [Compound 12, 2,6-Bis(2-methoxyethyl)-1H,5H-[1,4]dithiino[2,3-c:5,6-c]dipyrrole-1,3,5,7(2H,6H)-tetrone] | log P = 2.55 |
| CC(C(=O)O)n1c(=O)c2sc3c(=O)n(C(C)C(=O)O)c(=O)c3sc2c1=O (centres unmarked) [Compound 24, 2,2′-(1,3,5,7-Tetraoxo-1,3,5,7-tetrahydro-2H,6H-[1,4]dithiino[2,3-c:5,6-c]dipyrrole-2,6-diyl)dipropanoic acid] | log P = 1.76 |
